Like-named read-outs stand apart in the source and are kept apart here.
Legend:
StITPK1 [1] = target: T1, StITPK1 (Solanum tuberosum, UniProt A4H2J0); assay: Kinase assay with ATP, HPLC of products; assay type: biochemical; conditions: for Product formation (3h) / Product formation (12h) / Product formation (separate 12h experiment): 1 mM substrate; for Product formation (3h) / Product formation (12h): 25°C; for kinase substrate status: with ATP, HPLC
Method: Kinase assays were performed with ATP-regeneration as described for ATP-grasp kinases ITPK1/2 and VIH1/2 [2-3, 27-29], here in 20 mM HEPES pH 6.5, 1 mM MgCl2, 0.5 mM ATP and 1 mM inositol phosphate substrate. The low rate constants for phospho-kinase activity and the low sensitivity of NMR, PAGE and HPLC […]
[2-3, 27-29], here with or without 4 µM protein for 3h or 12h at 25 °C. Competition/inhibition assays were […]
InsP6, and competitor, typically 0.5 mM, incubated with or without 3 µM protein for 2 h at 25 °C . […]
0.5 mM inositol pyrophosphate substrate incubated with 4 µM protein at 25 °C . HPLC analysis and detection of inositol phosphates by complexation with ferric ion was performed as described. Peak area data were analysed with the chromatography Jasco ChromNav v.2 software and x,y data were imported into GraphPad Prism v.6 software (GraphPad Software Inc., San Diego, USA) for plotting of chromatograms without additional processing of the data. […]

StITPK1 [2] = target: T1, StITPK1; assay: Fluorescence polarization displacement of 2-FAM-InsP5; assay type: binding; conditions: Cheng-Prusoff with Kd 48 nM
Excerpt: To determine the relative strengths of binding of different inositol phosphate and inositol pyrophosphate substrates of StITPK1 we undertook fluorescence polarization experiments with 2-FAM-InsP5 [35]. […] A saturation curve for binding of 2-FAM-InsP5 to StITPK1 is shown (Figure S5) and displacement curves are shown for diverse inositol phosphates (Figure 2). The structures of these compounds are shown (Figure S1). […]
Fluorescence polarization (anisotropy)
A curve for binding of 2-FAM-InsP5 to StITPK1 was obtained by incubation of 2 nM 2-FAM-InsP5 [1] with increasing concentration (1-500 nM) of StITPK1 in 20 mM HEPES pH 6.5, 1 mM EDTA, 100 mM NaCl, after. Thereafter, displacement assays were performed by titration of inositol phosphate, inositol pyrophosphate […]
or analog thereof with 2 nM 2-FAM-InsP5 and 50 nM StITPK1. Compounds were tested for displacement in a range of 1 nM - 50 µM. Fluorescence polarization was measured in 384-well, black, low-binding plates, Corning product 3573. Binding and displacement curves (anisotropy) were log transformed and fitted to a 4-parameter logistic (in GraphPad Prism v.6 software (GraphPad Software Inc., San Diego, USA). Fitting of the […]
Substituting the value of Kd for KM in the Cheng-Prusoff equation for competitive inhibition: […]
with concentration of 2-FAM-InsP5 [S], yielded Ki with confidence intervals adjusted by linear approximation.
M.; Jamieson, A. G.; Potter, B. V.; Schwabe, J. W., Insights into the activation mechanism of class I HDAC complexes by inositol phosphates. Nat Commun 2016, 7, 11262. […]

StITPK1 [3] = target: T1, StITPK1; assay: Competition/inhibition of Ins(1,2,3,4,5)P5 5-phospho-kinase activity, HPLC; assay type: biochemical; conditions: 0.5 mM competing substrate/inhibitor, 1 mM Ins(1,2,3,4,5)P5, 3h experiment
[4] = Ki for displacement of 2-FAM-InsP5, 2 nM 2-FAM-InsP5, 50 nM StITPK1, pH 6.5
[5] = 2 nM 2-FAM-InsP5, 50 nM StITPK1, pH 6.5, read-out: Ki for displacement of 2-FAM-InsP5

T1 sequence (A4H2J0 entry or part of it): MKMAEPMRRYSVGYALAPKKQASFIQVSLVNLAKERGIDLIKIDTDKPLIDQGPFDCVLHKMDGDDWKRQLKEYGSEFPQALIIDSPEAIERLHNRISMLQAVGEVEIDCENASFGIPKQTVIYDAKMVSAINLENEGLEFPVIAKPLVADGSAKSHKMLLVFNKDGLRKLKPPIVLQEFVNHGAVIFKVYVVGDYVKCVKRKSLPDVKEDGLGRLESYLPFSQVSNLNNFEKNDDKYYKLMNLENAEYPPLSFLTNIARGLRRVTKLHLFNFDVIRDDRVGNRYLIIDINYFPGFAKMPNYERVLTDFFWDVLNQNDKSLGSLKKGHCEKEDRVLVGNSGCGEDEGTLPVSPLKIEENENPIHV

Ki (StITPK1 [2]; [5]) [µM] | Compound | Product formation (3h) (StITPK1 [1]) [μM/μM protein] | Product formation (12h) (StITPK1 [1]) [μM/μM protein] | kinase substrate status (StITPK1 [1]) | Ki (StITPK1 [2]; [4]) [µM] | % inhibition at 3h, Ins(1,2,3,4,5)P5 substrate (StITPK1 [3]) [%] | Product formation (separate 12h experiment) (StITPK1 [1]) [μM/μM protein]
– | O=C(CP(=O)(O)O)NC1C(OP(=O)(O)O)C(OP(=O)(O)O)C(OP(=O)(O)O)C(OP(=O)(O)O)C1OP(=O)(O)O (centres unmarked) [5-PCH2AM-InsP5, 5-deoxy-5-(phosphonoacetamido)-myo-inositol 1,2,3,4,6-pentakisphosphate] | 0 | 25 | very weak substrates | 0.889 | 43 | –
– | O=P(O)(O)OC1C(OP(=O)(O)O)C(OP(=O)(O)O)C(OP(=O)(O)O)C(OP(=O)(O)O)C1OP(=O)(O)O (centres unmarked) [neo-InsP6, neo-inositol 1,2,3,4,5,6-hexakisphosphate] | – | 0 | failure of StITPK1 to phosphorylate | 0.111 | – | 0
– | O=P(O)(O)OC1C(OP(=O)(O)O)C(OP(=O)(O)O)C(OP(=O)(O)O)C(OP(=O)(O)O)C1OP(=O)(O)O (centres unmarked) [scyllo-InsP6, scyllo-inositol 1,2,3,4,5,6-hexakisphosphate] | – | 0 | failure of StITPK1 to phosphorylate | 0.423 | – | 0
2.56 | O=P(O)(O)O[C@@H]1[C@@H](OP(=O)(O)O)[C@H](OP(=O)(O)O)[C@@H](O)[C@@H](O)[C@H]1OP(=O)(O)O [Ins(1,4,5,6)P4, 1D-myo-inositol 1,4,5,6-tetrakisphosphate] | – | – | – | – | – | 41
0.288 | O=P(O)(O)O[C@@H]1[C@H](OP(=O)(O)O)[C@H](OP(=O)(O)O)[C@@H](O)[C@H](OP(=O)(O)O)[C@H]1OP(=O)(O)O [Ins(1,2,3,5,6)P5, 1D-myo-inositol 1,2,3,5,6-pentakisphosphate] | – | – | lacking activity | – | – | 0
0.431 | O=P(O)(O)O[C@@H]1[C@@H](OP(=O)(O)O)[C@H](OP(=O)(O)O)[C@@H](O)[C@H](OP(=O)(O)O)[C@@H]1OP(=O)(O)O [Ins(1,2,3,4,5)P5, 1D-myo-inositol 1,2,3,4,5-pentakisphosphate] | – | – | showing phospho-kinase activity | – | – | 257
– | O=C(NC1C(OP(=O)(O)O)C(OP(=O)(O)O)C(OP(=O)(O)O)C(OP(=O)(O)O)C1OP(=O)(O)O)C(F)(F)P(=O)(O)O (centres unmarked) [5-PCF2AM-InsP5, 5-deoxy-5-(phosphonodifluoroacetamido)-myo-inositol 1,2,3,4,6-pentakisphosphate] | 0 | 0 | not a substrate | 0.106 | 67 | –
– | O=P(O)(O)O[C@@H]1[C@@H](OP(=O)(O)O)[C@@H](OP(=O)(O)O)[C@@H](OP(=O)(O)OP(=O)(O)O)[C@H](OP(=O)(O)O)[C@H]1OP(=O)(O)O [1-PP-InsP5, 1D-1-diphospho-myo-inositol 2,3,4,5,6-pentakisphosphate] | 9 | 75 | the weaker substrate | – | 76 | –
– | O=P(O)(O)OC1C(OP(=O)(O)O)C(OP(=O)(O)O)C(OP(=O)(O)O)C(OP(=O)(O)O)C1OP(=O)(O)O [D-chiro-InsP6, 1-D-chiro-inositol 1,2,3,4,5,6-hexakisphosphate] | – | 0 | not a substrate | 0.154 | – | 0

Compound | Ki (StITPK1 [2]; [5]) [µM] | Product formation (3h) (StITPK1 [1]) [μM/μM protein] | Product formation (12h) (StITPK1 [1]) [μM/μM protein] | kinase substrate status (StITPK1 [1]) | Ki (StITPK1 [2]; [4]) [µM] | % inhibition at 3h, Ins(1,2,3,4,5)P5 substrate (StITPK1 [3]) [%] | Product formation (separate 12h experiment) (StITPK1 [1]) [μM/μM protein]
O=P(O)(O)CP(=O)(O)OC1C(OP(=O)(O)O)C(OP(=O)(O)O)C(OP(=O)(O)O)C(OP(=O)(O)O)C1OP(=O)(O)O (centres unmarked) [5-PCP-InsP5, myo-inositol 1,2,3,4,6-penta-phosphate-5-methylenediphosphonate] | 0.101 | 0 | 0 | – | – | 60 | –

— article PMC10765375, “Crystal structure and enzymology of Solanum tuberosum inositol tris/tetrakisphosphate kinase 1 (StITPK1)” (Biochemistry, 2023)
